Laboratory results as given in DBAASP.
Values after ≈ are worked out from the molar mass of the structure shown. Values joined by “and” are separate entries in the source; they are usually repeats but may differ in a detail not shown here. Identical values can stand only once. One block for each compound: values may come before it.

Experiments:
Test in all cases: ≥ marks a high value that may be exact or a test limit, other limits are often not marked, values filed in µg/mL are converted to µM
[1] = test system: Pseudomonas aeruginosa PAO1
Escherichia coli K88 = test system: Escherichia coli K88
[2] = test system: Pseudomonas aeruginosa ATCC 27853
[3] = test system: Salmonella enterica subsp. enterica serovar Pullorum ATCC 7913
[4] = test system: Bacillus subtilis CMCC 63501
Acinetobacter baumannii = test system: Acinetobacter baumannii
[5] = test system: Enterococcus faecalis ATCC 29212
[6] = test system: Staphylococcus aureus ATCC 25923
Escherichia coli UB1005 = test system: Escherichia coli UB1005
[7] = test system: Bacillus cereus CGMCC 1.932
[8] = test system: Salmonella enterica subsp. enterica serovar Typhimurium ATCC 14028
Escherichia coli 078 = test system: Escherichia coli 078
[9] = test system: Staphylococcus aureus ATCC 43300
[10] = test system: Listeria monocytogenes CGMCC 1.1075
Escherichia coli K99 = test system: Escherichia coli K99
[11] = test system: Staphylococcus epidermidis ATCC 12228
[12] = test system: Salmonella typhimurium ATCC 7731
[13] = test system: Pseudomonas aeruginosa NBRC 13275
[14] = test system: Staphylococcus aureus NBRC 13276
[15] = test system: Escherichia coli DH5alpha
[16] = test system: Cutibacterium acnes JCM 6473
[17] = test system: Streptococcus mutans JCM 5705
[18] = test system: Porphyromonas gingivalis ATCC 33277
[19] = test system: Candida albicans NBRC 1385
[20] = test system: Bacillus subtilis KCTC 2217
[21] = test system: Acinetobacter baumannii KCTC 2508
Escherichia coli BL21AI = test system: Escherichia coli BL21AI
[22] = test system: Micrococcus luteus DSM 1790

- MIC [1]: 4 µM (≈ 7.26 µg/mL)
- MIC (Escherichia coli K88): 2 µM (≈ 3.63 µg/mL)
- MIC [2]: 8 µM (≈ 14.5 µg/mL)
- MIC [3]: 2 µM (≈ 3.63 µg/mL)
- MIC [4]: 8 µM (≈ 14.5 µg/mL)
- MIC (Acinetobacter baumannii): 2 µM (≈ 3.63 µg/mL)
- MIC [5]: 2 µM (≈ 3.63 µg/mL)
- MIC [6]: 2 µM (≈ 3.63 µg/mL)
- MIC (Escherichia coli UB1005): 4 µM (≈ 7.26 µg/mL)
- MIC [7]: 8 µM (≈ 14.5 µg/mL)
- MIC [8]: 2 µM (≈ 3.63 µg/mL)
- MIC (Escherichia coli 078): 4 µM (≈ 7.26 µg/mL)
- MIC [9]: 2 µM (≈ 3.63 µg/mL)
- MIC [10]: 2 µM (≈ 3.63 µg/mL)
- MIC (Escherichia coli K99): 2 µM (≈ 3.63 µg/mL)
- MIC [11]: 4 µM (≈ 7.26 µg/mL)
- MIC [12]: 16 µM (≈ 29.1 µg/mL)
Structure (SMILES): NCC(=O)N[C@@H](CCCN=C(N)N)C(=O)N[C@@H](Cc1c[nH]c2ccccc12)C(=O)N[C@@H](CCCN=C(N)N)C(=O)N[C@@H](Cc1c[nH]c2ccccc12)C(=O)N[C@@H](Cc1c[nH]c2ccccc12)C(=O)N[C@@H](Cc1c[nH]c2ccccc12)C(=O)N[C@@H](CCCN=C(N)N)C(=O)N[C@@H](Cc1c[nH]c2ccccc12)C(=O)N[C@@H](CCCN=C(N)N)C(=O)N[C@@H](Cc1c[nH]c2ccccc12)C(N)=O [GRWRWWWRWRW]

- MIC [13]: ≥ 200 µM
- MIC [14]: ≥ 400 µM
- MIC [15]: ≥ 200 µM
Structure (SMILES): CC(=O)N[C@@H](CCCCN)C(=O)N[C@@H](Cc1ccccc1)C(=O)N[C@@H](CC(C)C)C(=O)N[C@@H](Cc1cnc[nH]1)C(=O)N[C@@H](CO)C(=O)N[C@@H](C)C(=O)N[C@@H](CCCCN)C(=O)N[C@@H](CCCCN)C(=O)N[C@@H](Cc1ccccc1)C(=O)NCC(=O)N[C@@H](CCCCN)C(=O)N[C@@H](C)C(=O)N[C@@H](Cc1ccccc1)C(=O)N[C@H](C(N)=O)C(C)C [KFLHSAKKFGKAFV]

- MIC [16]: ≥ 1020 µM
- MIC [17]: ≥ 1020 µM
- MIC [18]: ≥ 1020 µM
- MIC [19]: ≥ 1020 µM
Structure (SMILES): CC[C@H](C)[C@H](NC(=O)[C@H](CCCN=C(N)N)NC(=O)CNC(=O)[C@H](Cc1ccc(O)cc1)NC(=O)[C@H](CCC(N)=O)NC(=O)[C@H](CC(N)=O)NC(=O)[C@@H](N)CCCCN)C(=O)N[C@@H](CCCN=C(N)N)C(=O)N[C@H](C(=O)N[C@@H](CC(C)C)C(=O)N[C@@H](CCC(N)=O)C(=O)N[C@@H](CCCN=C(N)N)C(=O)N[C@@H](Cc1ccccc1)C(=O)N[C@@H](CC(N)=O)C(=O)N[C@@H](CCC(N)=O)C(=O)N[C@@H](CCCN=C(N)N)C(=O)O)C(C)C [KNQYGRIRVLQRFNQR]

- MIC [20]: 3.13 µM (≈ 5.52 µg/mL)
- MIC [6]: 1.56 µM and > 0.78 µM
- MIC [21]: 12.5 µM (≈ 22 µg/mL)
Structure (SMILES): CC(C)C[C@H](NC(=O)[C@H](CCCCN)NC(=O)[C@H](CCCCN)NC(=O)[C@H](CC(C)C)NC(=O)[C@H](CC(C)C)NC(=O)[C@@H]1CCCN1C(=O)[C@H](CCCCN)NC(=O)[C@H](CCCCN)NC(=O)[C@H](CC(C)C)NC(=O)[C@H](CC(C)C)NC(=O)[C@H](CCCCN)NC(=O)[C@H](CCCCN)NC(=O)[C@H](Cc1c[nH]c2ccccc12)NC(=O)[C@@H](N)CCCCN)C(N)=O [KWKKLLKKPLLKKL]

- MIC (Escherichia coli BL21AI): ≥ 57.5 µM
- MIC [22]: 28.7 µM (≈ 62.5 µg/mL)
Structure (SMILES): CC[C@H](C)[C@H](NC(=O)[C@H](CCCN=C(N)N)NC(=O)[C@H](CCCN=C(N)N)NC(=O)[C@@H]1CCCN1C(=O)[C@@H]1CCCN1C(=O)[C@@H]1CCCN1C(=O)[C@@H]1CCCN1C(=O)[C@H](CCCN=C(N)N)NC(=O)[C@@H]1CCCN1C(=O)[C@H](CC(C)C)NC(=O)[C@H](Cc1ccc(O)cc1)NC(=O)[C@@H]1CCCN1C(=O)[C@@H]1CCCN1C(=O)[C@H](CCCCN)NC(=O)[C@H](CC(=O)O)NC(=O)[C@@H](N)C(C)C)C(=O)N[C@@H](Cc1ccc(O)cc1)C(=O)N[C@@H](CC(N)=O)C(=O)O [VDKPPYLPRPPPPRRIYN]
